Assay results published in publication PMC7041627, “Cucurbitacin D Overcomes Gefitinib Resistance by Blocking EGF Binding to EGFR and Inducing Cell Death in NSCLCs” (Frontiers in Oncology, 2020).

Assays:
Test in all cases: solid-phase competition binding assay with biotinylated EGF on coated receptor ECD/Fc
ErbB3 = molecular target: T1, ErbB3 (Homo sapiens, UniProt P21860)
T1 construct: ErbB3 ECD/Fc chimera; with EGF (biotinylated)

ErbB2 = molecular target: T2, ErbB2 (Homo sapiens, UniProt P04626)
T2 construct: ErbB2 ECD/Fc chimera; with EGF (biotinylated)

EGFR = molecular target: T3, EGFR (Homo sapiens, UniProt P00533)
T3 construct: human-EGFR ECD/Fc chimera; with EGF (biotinylated)
T3 sequence (P00533 25-645 limits assumed): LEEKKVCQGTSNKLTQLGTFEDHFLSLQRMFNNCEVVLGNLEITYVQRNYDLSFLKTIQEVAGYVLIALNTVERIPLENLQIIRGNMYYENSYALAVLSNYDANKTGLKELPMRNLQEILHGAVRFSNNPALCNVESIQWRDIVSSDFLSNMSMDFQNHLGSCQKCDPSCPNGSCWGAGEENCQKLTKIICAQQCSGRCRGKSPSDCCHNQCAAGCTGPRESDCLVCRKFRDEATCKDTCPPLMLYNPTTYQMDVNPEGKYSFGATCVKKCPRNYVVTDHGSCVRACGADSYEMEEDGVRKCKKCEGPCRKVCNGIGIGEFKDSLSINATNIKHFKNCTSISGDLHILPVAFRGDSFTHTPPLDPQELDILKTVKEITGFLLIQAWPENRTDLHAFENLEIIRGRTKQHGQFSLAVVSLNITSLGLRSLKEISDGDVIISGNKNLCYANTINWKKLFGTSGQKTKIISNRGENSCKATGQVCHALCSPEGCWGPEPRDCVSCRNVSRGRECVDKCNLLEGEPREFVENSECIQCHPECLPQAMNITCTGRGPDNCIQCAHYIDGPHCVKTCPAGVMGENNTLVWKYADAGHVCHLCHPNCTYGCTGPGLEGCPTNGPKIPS
T3 sequence (P01133 971-1023 partner): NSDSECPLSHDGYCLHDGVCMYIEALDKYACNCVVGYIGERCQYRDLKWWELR

T2 sequence (P04626 23-652): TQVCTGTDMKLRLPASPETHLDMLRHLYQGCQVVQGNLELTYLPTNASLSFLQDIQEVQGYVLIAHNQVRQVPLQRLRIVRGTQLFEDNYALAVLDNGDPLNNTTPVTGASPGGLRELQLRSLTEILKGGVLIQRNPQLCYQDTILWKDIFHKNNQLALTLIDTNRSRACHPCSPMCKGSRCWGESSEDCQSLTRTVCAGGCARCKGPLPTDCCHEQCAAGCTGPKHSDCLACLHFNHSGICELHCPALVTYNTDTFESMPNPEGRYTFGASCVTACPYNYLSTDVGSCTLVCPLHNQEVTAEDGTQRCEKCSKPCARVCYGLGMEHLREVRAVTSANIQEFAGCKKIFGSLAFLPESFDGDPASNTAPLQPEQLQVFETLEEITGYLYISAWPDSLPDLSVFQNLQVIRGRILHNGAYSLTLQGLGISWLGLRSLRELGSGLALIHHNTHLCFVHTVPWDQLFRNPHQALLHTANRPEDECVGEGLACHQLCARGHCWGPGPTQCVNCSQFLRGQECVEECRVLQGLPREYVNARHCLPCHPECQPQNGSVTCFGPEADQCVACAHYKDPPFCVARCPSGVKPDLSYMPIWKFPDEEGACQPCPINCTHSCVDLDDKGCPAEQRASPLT
T2 sequence (P01133 971-1023, further chain): as the sequence (P01133 971-1023 partner) above
T1 sequence (P21860 20-643 limits assumed): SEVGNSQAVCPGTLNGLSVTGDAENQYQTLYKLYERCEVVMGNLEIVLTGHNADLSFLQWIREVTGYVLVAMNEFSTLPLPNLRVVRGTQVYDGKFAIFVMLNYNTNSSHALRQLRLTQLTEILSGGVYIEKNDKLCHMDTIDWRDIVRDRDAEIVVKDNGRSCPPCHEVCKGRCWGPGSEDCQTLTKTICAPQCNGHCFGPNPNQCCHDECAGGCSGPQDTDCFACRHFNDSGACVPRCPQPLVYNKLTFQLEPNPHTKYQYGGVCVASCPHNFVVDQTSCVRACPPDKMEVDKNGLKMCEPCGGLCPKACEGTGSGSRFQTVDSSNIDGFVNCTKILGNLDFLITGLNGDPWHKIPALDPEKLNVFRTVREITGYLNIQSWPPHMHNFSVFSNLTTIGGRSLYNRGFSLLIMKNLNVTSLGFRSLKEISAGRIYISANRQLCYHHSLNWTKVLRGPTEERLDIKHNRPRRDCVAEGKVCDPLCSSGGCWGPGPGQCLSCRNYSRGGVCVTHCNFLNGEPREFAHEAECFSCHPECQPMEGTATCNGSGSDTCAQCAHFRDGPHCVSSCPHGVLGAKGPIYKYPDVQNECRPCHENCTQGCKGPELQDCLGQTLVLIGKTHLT
T1 sequence (P01133 971-1023 partner): as the sequence (P01133 971-1023 partner) above

In the case of CC(C)(O)/C=C/C(=O)[C@](C)(O)[C@H]1[C@H](O)C[C@@]2(C)[C@@H]3CC=C4[C@@H](C[C@H](O)C(=O)C4(C)C)[C@]3(C)C(=O)C[C@]12C [CuD, cucurbitacin D], the IC50 (ErbB3) is reported as 331 nM, the IC50 (ErbB2) is reported as 11.1 nM and the IC50 (EGFR) is reported as 4.33 nM.
